Assay results as given in patent US10953027B2, “Active agents and methods of their use for the treatment of metabolic disorders and nonalcoholic fatty liver disease” (Flagship Pioneering Innovations V, Inc., priority 2018, dated 2021).

Assay: Assay 1. Stability in Simulated Gastric Fluid (SGF)
Format: in vitro ADME
Details: 1 μM, 37° C., SGF pH 1.6 with pepsin
Procedure: Assay 1. Stability of acylated active agents in Simulated Gastric Fluid (SGF). This assay was used to assess the stability of an acylated active agent in a stomach.
Medium was prepared by dissolving 2 g of sodium chloride in 0.6 L of ultrapure water (MilliQ®, Millipore Sigma, Darmstadt, Germany). The pH was adjusted to 1.6 with 1N hydrochloric acid, and the volume was then adjusted to 1 L with purified water.
60 mg FaSSIF powder (Biorelevant™, London, UK) were dissolved in 500 mL buffer (above). Pepsin was added (0.1 mg/mL) (Millipore Sigma, Darmstadt, Germany), and the solution was stirred. The resulting SGF media were used fresh for each experiment.
Test compounds were dissolved in DMSO stock to 1 mM. An aliquot of the DMSO stock solution was removed and diluted in the SGF Media in 15 mL falcon tubes to generate a compound concentration of 1 μM. A 1 mL aliquot was immediately removed and diluted once with 1 volume of acetonitrile for T0 timepoint. The mixture was sealed and mixed at 37° C. in an incubator. Aliquots (1 mL) were removed at regular intervals and immediately quenched by the addition of 1 volume of acetonitrile. The resulting samples were analyzed by LC/MS to determine degradation rates in SGF.

Row | SMILES | Assay 1 (SGF) (% Remaining @ 1 hours)
1 | CCCCCCCC(=O)Oc1ccc(/C=C/c2cc(OC(=O)CCCCCCC)cc(OC(=O)CCCCCCC)c2)cc1 [Compound 11, [4-[(E)-2-[3,5-di(octanoyloxy)phenyl]vinyl]phenyl] octanoate] | C (C: >75% of the tested compound remaining)
2 | CC(=O)Oc1cc(C(=O)O)cc(OC(C)=O)c1OC(C)=O [Compound 44, 3,4,5-triacetoxybenzoic Acid] | C (C: >75% of the tested compound remaining)
3 | C=C1CC[C@H](OC(=O)[C@H](OC(=O)CCC)[C@@H](OC(=O)CCC)[C@H](OC(=O)CCC)[C@@H](COC(=O)CCC)OC(=O)CCC)C/C1=C/C=C1\CCC[C@]2(C)[C@@H]([C@H](C)CCCC(C)C)CC[C@@H]12 [Compound 67, [(1 S,3Z)-3-[(2E)-2-[(1R,3aS,7aR)-1-[(1R)-1,5-dimethylhexyl]-7a-methyl-2,3,3a,5,6,7-hexahydro-1H-inden-4-ylidene]ethylidene]-4-methylene-cyclohexyl] (2R,3S,4R,5R)-2,3,4,5,6-penta(butanoyloxy)hexanoate] | B (B: 25-75% of the tested compound remaining)
4 | CCCC(=O)O[C@@H]1[C@@H](OC(=O)CCC)[C@H](Oc2ccc(N)cc2C(=O)O)OC[C@H]1OC(=O)CCC [Compound 34, 5-amino-2-[(2S,3R,4S,5R)-3,4,5-tri(butanoyloxy)tetrahydropyran-2-yl]oxy-benzoic Acid] | C (C: >75% of the tested compound remaining)
5 | CCCC(=O)OCC1(OC(=O)CCC)OC[C@@H](OC(=O)CCC)[C@H](OC(=O)CCC)[C@@H]1OC(=O)CCC (stereo partly drawn) [Compound 163, [(3S,4S,5R)-2,3,4,5-tetrakis(butanoyloxy)oxan-2-yl]methyl Butanoate] | C (C: >75% of the tested compound remaining)
6 | CCC(=O)O[C@@H]1[C@@H](OC(=O)CC)[C@@H](OC(=O)CCc2c[nH]c3ccccc23)OC[C@H]1OC(=O)CC [Compound 108, (2R,3R,4S,5R)-3,4,5-tris(propanoyloxy)oxan-2-yl 3-(1H-indol-3-yl)propanoate] | C (C: >75% of the tested compound remaining)
7 | C[C@@H]1CCOC(C(=O)Oc2ccc(/C=C/c3cc(OC(=O)C4OCC[C@@H](C)O4)cc(OC(=O)C4OCC[C@@H](C)O4)c3)cc2)O1 (stereo partly drawn) [Compound 258, 3-[(4R)-4-methyl-1,3-dioxane-2-carbonyloxy]-5-[(1E)-2-{4-[(4R)-4-methyl-1,3-dioxane-2-carbonyloxy]phenyl}ethenyl]phenyl (4R)-4-methyl-1,3-dioxane-2-carboxylate] | A (A: <25% of the tested compound remaining)
8 | CCCCCCCCCC(=O)Oc1ccc(/C=C/c2cc(OC(=O)CCCCCCCCC)cc(OC(=O)CCCCCCCCC)c2)cc1 [Compound 12, [4-[(E)-2-[3,5-di(decanoyloxy)phenyl]vinyl]phenyl] decanoate] | C (C: >75% of the tested compound remaining)
9 | CCC(=O)O[C@H]1[C@H](OC(=O)CC)[C@H](OC(=O)/C=C/c2c[nH]c3ccccc23)O[C@@H](C)[C@H]1OC(=O)CC [Compound 148, (2S,3S,4R,5R,6S)-6-methyl-3,4,5-tris(propanoyloxy)oxan-2-yl (2E)-3-(1H-indol-3-yl)prop-2-enoate] | C (C: >75% of the tested compound remaining)
10 | C[C@@H]1CCO[C@H](C(=O)Oc2ccc(/C=C/c3cc(O)cc(OC(=O)[C@H]4OCC[C@@H](C)O4)c3)cc2)O1 [Compound 256, 4-[(1E)-2-{3-hydroxy-5-[(2S,4R)-4-methyl-1,3-dioxane-2-carbonyloxy]phenyl}ethenyl]phenyl (2S,4R)-4-methyl-1,3-dioxane-2-carboxylate] | A (A: <25% of the tested compound remaining)
11 | CCC(=O)O[C@@H]1OC[C@H](OC(=O)CC)[C@H](OC(=O)CC)[C@H]1OC(=O)CC [Compound 160, (2S,3R,4S,5S)-3,4,5-tris(propanoyloxy)oxan-2-yl Propanoate] | C (C: >75% of the tested compound remaining)

Assay: Assay 2. Stability in Simulated Intestinal Fluid (SIF)
Format: in vitro ADME
Details: 1 μM, 37° C., SIF pH 6.7 with pancreatin
Procedure: Assay 2. Stability of acylated active agents in Simulated Intestinal Fluid (SIF). This assay was used to assess the stability of an acylated active agent in a small intestine.
Phosphate buffer was prepared by dissolving 0.42 g of sodium hydroxide pellets and 3.95 g of monobasic sodium phosphate monohydrate and 6.19 g of sodium chloride in ultrapure water (MilliQ®, Millipore Sigma, Darmstadt, Germany). The pH was adjusted to 6.7 using aq. HCl and aq. NaOH, as necessary, and the solution was diluted with ultrapure water to produce 1 L of the pH 6.7 buffer.
112 mg FaSSIF powder (Biorelevant™, London, UK) was dissolved in 50 mL of the pH 6.7 buffer. 2 to 3 mL of the resulting solution were then added to 500 mg pancreatin (Millipore Sigma, Darmstadt, Germany). The resulting mixture was agitated by finger tapping the vessel containing the mixture until milky suspension formed. At this time, the remainder of the 50 mL FaSSiF/pH 6.7 buffer solution was added. The resulting suspension was flipped upside down 10 times to produce SIF, which was used fresh.
Test compounds were dissolved in DMSO stock to 1 mM. An aliquot of the DMSO stock solution was removed and diluted in the SIF media in 15 mL falcon tubes to produce a mixture with a tested compound concentration of 1 μM. A 1 mL aliquot was immediately removed and diluted once with 1 volume of acetonitrile for T0 timepoint. The mixture was sealed and agitated at 37° C. in an incubator. Aliquots (1 mL) were removed at regular intervals and immediately quenched by the addition of 1 volume of acetonitrile. The resulting samples were analyzed by LC/MS to determine degradation rates.

Row | SMILES | Assay 2 (SIF) (% @ Remaining 4 hours)
12 | C[C@@H]1O[C@@H](OC(=O)Cc2c[nH]c3ccccc23)[C@H](OC(=O)Cc2c[nH]c3ccccc23)[C@H](OC(=O)Cc2c[nH]c3ccccc23)[C@H]1OC(=O)Cc1c[nH]c2ccccc12 [Compound 154, (2S,3R,4R,5S,6S)-3,4,5-tris({[2-(1H-indol-3-yl)acetyl]oxy})-6-methyloxan-2-yl 2-(1H-indol-3-yl)acetate] | A (A: <25% of the tested compound remaining)
13 | CC(=O)Oc1cc(C(=O)O)cc(OC(C)=O)c1OC(C)=O [Compound 44, 3,4,5-triacetoxybenzoic Acid] | B (B: 25-75% of the tested compound remaining)
14 | CCCC(=O)O[C@@H]1[C@@H](OC(=O)CCC)[C@@H](Oc2ccc(N)cc2C(=O)O)OC[C@H]1OC(=O)CCC [Compound 204, 5-amino-2-[(2R,3R,4S,5R)-3,4,5-tri(butanoyloxy)tetrahydropyran-2-yl]oxy-benzoic Acid] | B (B: 25-75% of the tested compound remaining)
15 | C=C1CC[C@H](OC(=O)[C@H](OC(=O)CCC)[C@@H](OC(=O)CCC)[C@H](OC(=O)CCC)[C@@H](COC(=O)CCC)OC(=O)CCC)C/C1=C/C=C1\CCC[C@]2(C)[C@@H]([C@H](C)CCCC(C)C)CC[C@@H]12 [Compound 67, [(1 S,3Z)-3-[(2E)-2-[(1R,3aS,7aR)-1-[(1R)-1,5-dimethylhexyl]-7a-methyl-2,3,3a,5,6,7-hexahydro-1H-inden-4-ylidene]ethylidene]-4-methylene-cyclohexyl] (2R,3S,4R,5R)-2,3,4,5,6-penta(butanoyloxy)hexanoate] | A (A: <25% of the tested compound remaining)
16 | CCCC(=O)O[C@@H]1[C@@H](OC(=O)CCC)[C@H](Oc2ccc(N)cc2C(=O)O)OC[C@H]1OC(=O)CCC [Compound 34, 5-amino-2-[(2S,3R,4S,5R)-3,4,5-tri(butanoyloxy)tetrahydropyran-2-yl]oxy-benzoic Acid] | C (C: >75% of the tested compound remaining)
17 | O=C(CCCc1ccccc1)Oc1ccc(/C=C/c2cc(OC(=O)CCCc3ccccc3)cc(OC(=O)CCCc3ccccc3)c2)cc1 [Compound 2, [4-[(E)-2-[3,5-bis(4-phenylbutanoyloxy)phenyl]vinyl]phenyl] 4-phenylbutanoate] | C (C: >75% of the tested compound remaining)
18 | CCCC(=O)O[C@@H]1O[C@@H](C)[C@H](OC(=O)CCC)[C@@H](OC(=O)CCC)[C@H]1OC(=O)CCC [Compound 152, (2S,3R,4R,5S,6S)-3,4,5-tris(butanoyloxy)-6-methyloxan-2-yl Butanoate] | A (A: <25% of the tested compound remaining)
19 | CCCC(=O)Nc1ccc(O[C@@H]2OC[C@@H](OC(=O)CCC)[C@H](OC(=O)CCC)[C@H]2OC(=O)CCC)c(C(=O)O)c1 [Compound 229, 5-butanamido-2-{[(2S,3R,4S,5R)-3,4,5-tris(butanoyloxy)oxan-2-yl]oxy}benzoic Acid] | A (A: <25% of the tested compound remaining)
20 | O=C(Cc1c[nH]c2ccccc12)O[C@@H]1OC[C@@H](OC(=O)Cc2c[nH]c3ccccc23)[C@@H](OC(=O)Cc2c[nH]c3ccccc23)[C@H]1OC(=O)Cc1c[nH]c2ccccc12 [Compound 172, (2S,3R,4R,5R)-3,4,5-tris({[2-(1H-indol-3-yl)acetyl]oxy})oxan-2-yl 2-(1H-indol-3-yl)acetate] | C (C: >75% of the tested compound remaining)
21 | CCCC(=O)O[C@H]1O[C@@H](C)[C@H](OC(=O)CCC)[C@@H](OC(=O)CCC)[C@H]1OC(=O)CCC [Compound 151, (2R,3R,4R,5S,6S)-3,4,5-tris(butanoyloxy)-6-methyloxan-2-yl Butanoate] | A (A: <25% of the tested compound remaining)
22 | CCCC(=O)O[C@H]1OC[C@@H](OC(=O)CCC)[C@H](OC(=O)CCC)[C@H]1OC(=O)CCC [Compound 191, (2R,3R,4S,5R)-3,4,5-tris(butanoyloxy)oxan-2-yl Butanoate] | C (C: >75% of the tested compound remaining)
23 | CCCC(=O)O[C@@H]1[C@@H](OC(=O)CCC)[C@@H](Oc2ccc(N)cc2C(=O)O)OC[C@@H]1OC(=O)CCC [Compound 42, 5-amino-2-[(2R,3R,4S,5S)-3,4,5-tri(butanoyloxy)tetrahydropyran-2-yl]oxy-benzoic Acid] | C (C: >75% of the tested compound remaining)
24 | C[C@@H]1O[C@H](OC(=O)Cc2c[nH]c3ccccc23)[C@H](OC(=O)Cc2c[nH]c3ccccc23)[C@H](OC(=O)Cc2c[nH]c3ccccc23)[C@H]1OC(=O)Cc1c[nH]c2ccccc12 [Compound 153, (2R,3R,4R,5S,6S)-3,4,5-tris({[2-(1H-indol-3-yl)acetyl]oxy})-6-methyloxan-2-yl 2-(1H-indol-3-yl)acetate] | A (A: <25% of the tested compound remaining)
